Laboratory results published in patent US20250057813A1, “APOPTOSIS RELATED PROTEIN IN THE TGF-BETA SIGNALING PATHWAY (ARTS) MIMETIC COMPOUNDS, COMPOSITIONS, METHODS AND USES THEREOF IN INDUCTION OF APOPTOSIS” (Carmel-Haifa University Economic Corporation Ltd., priority 2022, published 2025).

Tests used:
XIAP = XIAP (Homo sapiens, UniProt P98170); assay: Nano-DSF binding assay (Crelux); conditions: binding curve, dose response
[1] = tested on: A375 human melanoma cells; assay: SDS PAGE and Western blot analysis of A375 cells; format: cell-based
Method: The cells were lysed in WCE (whole-cell extract) buffer [25 mM Hepes, pH 7.7, 0.3M NaCl, 1.5 mM MgCl2, 0.2 mM EDTA, 0.1% Triton X-100, 100[μg/ml PMSF and protease inhibitor cocktail (Roche, 1:100 dilution)]. 100 μg of total cell protein, measured with the Bio-Rad Protein Assay kit, were separated by SDS-PAGE (12%) followed by transfer for 2 h on to a nitrocellulose membrane. The membrane was blocked with 5% (w/v) non-fat dried skimmed milk powder in PBS supplemented with 0.05% Tween20 (PBS-T) for 1 hour at room temperature (R.T). Membrane was then probed with primary antibody at 4° C. overnight. Next, the membrane was incubated with the appropriate HRP-conjugated secondary antibody, for 1 hour at R.T. and washed 15 min ×3 with PBS-T. WesternBright ECL (Advansta) was added to the membrane for 2 min and analyzed using ImageQuant LAS-4000 analyzer (GE Healthcare Life Sciences) & “ImageQuant LAS-4000” software (GE Healthcare Life Sciences). Densitometry analysis was performed using ImageQuant total lab 7 (GE Healthcare Life Sciences), image analysis software.
(§1) Cells were lysed in whole-cell extract buffer [25 mM HEPES, pH 7.7, […], 1.5 mM MgCl2, 0.2 mM EDTA, 0.1% Triton X-100, 100 μg/ml phenylmethylsulfonyl fluoride (PMSF) and protease inhibitor cocktail (Roche, 1:100 dilution)] and placed on ice for 30 min (vortexing once after 15 min). After 30 minutes, the samples were centrifuged at 13,000×g for 10 minutes at 4° C. The supernatants containing total protein were measured for protein concentration using Bio-Rad Protein Assay Dye Reagent Concentrate Kit. 40 to […] was separated by sodium dodecyl sulfate-polyacrylamide gel electrophoresis (SDS-PAGE) (12% or 7.5%), followed by transfer to a nitrocellulose membrane. The membranes were blocked with 5% (w/v) non-fat dried skimmed milk powder in PBS supplemented with 0.05% Tween-20 (PBS-T) for 1 h at RT. Next, primary antibodies were added at 4° C. overnight or for 2 h at room temperature. Membranes were then incubated with secondary antibody for 1 h at RT and washed three times for 15 min each with PBS-T. Western Bright ECL (Advansta) was added to the membrane for 30-60 s and analyzed using Image Quant LAS-4000 (GE Healthcare Life Sciences) and Image Quant LAS-4000 software (GE Healthcare Life Sciences).

[2] = target: T1, binding between XIAP and p53 (Homo sapiens, UniProt P98170); assay: BiFC assay in WT MEFs (VN-p53 and VC-XIAP); format: cell-based; conditions: 20 μM B3 for 18 hours
T1 construct: expressed in transfected cells; host or cells: WT MEFs
T1 sequence (P98170 whole entry): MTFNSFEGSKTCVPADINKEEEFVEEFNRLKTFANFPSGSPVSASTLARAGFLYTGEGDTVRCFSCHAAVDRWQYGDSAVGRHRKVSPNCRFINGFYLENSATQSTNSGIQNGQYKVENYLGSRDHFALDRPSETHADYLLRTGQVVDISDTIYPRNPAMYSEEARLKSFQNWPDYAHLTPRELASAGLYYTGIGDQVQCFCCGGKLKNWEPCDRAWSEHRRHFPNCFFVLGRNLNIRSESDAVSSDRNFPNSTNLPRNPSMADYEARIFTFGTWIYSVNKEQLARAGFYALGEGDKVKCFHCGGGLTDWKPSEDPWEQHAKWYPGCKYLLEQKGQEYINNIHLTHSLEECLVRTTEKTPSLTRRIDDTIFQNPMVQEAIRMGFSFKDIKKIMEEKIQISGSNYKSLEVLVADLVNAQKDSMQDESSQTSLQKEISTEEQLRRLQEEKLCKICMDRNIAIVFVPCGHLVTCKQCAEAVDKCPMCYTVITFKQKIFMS
Text: The split-Venus BiFC system was used to evaluate close proximity indicating possible direct binding between pairs of proteins. The proteins were fused either to the N-terminal part of the VenusYFP (yellow fluorescence protein) (VN) or the C-terminal domain (VC). All Venus fragments were fused to the C-terminal sequences of these proteins. The Jun and bFos pair was used as a positive control (p.c.), and the Jun and bFosdeltaZTP pair was used as a negative control (n.c.). A vector encoding dsRed was used as a transfection efficiency marker.

PBMC = assay: Viability assay (SRB), normal cell control; format: cell-based, Human; conditions: 72 hrs, 10 mM to 0.1 μM
Method: (§2) The assay was performed at six tenfold serial dilutions of the B3 compounds: 10 mM (stock), 1 mM, 100 μM, 10 μM, 1 μM and 0.1 μM. The screen was performed on 93 cancer cell lines and PBMC as normal cell control. The B3 compound was incubated with the cells for 72 hours. The following cancer cell lines were screened:
(§3) The Sulforhodamine B (SRB) assay was used as a screening method. Briefly, the method relies on the property of SRB, to bind stoichiometrically to proteins under mild acidic conditions and to be extracted under basic conditions. Thus, the amount of bound dye can be used as a proxy for cell mass, which can then be extrapolated to measure cell proliferation. The protocol can be divided into four main steps: preparation of treatment, incubation of cells with treatment of choice, cell fixation and SRB staining and absorbance measurement.

[3] = target: T2, p53 ubiquitylation by XIAP (Homo sapiens, UniProt P98170); assay: In vitro ubiquitylation assay, recombinant GST-XIAP and p53; format: biochemical; conditions: 20 and 40 μM B3, 1 hour at 37C
T2 construct: host or cells: bacteria (GST-XIAP)
T2 sequence (P98170 whole entry): as above
Method: Bacterially expressed His-ARTS was purified using fast protein liquid chromatography (FPLC), and bacterially expressed GST-XIAP was purified using glutathione beads. P53 recombinant protein was purchased from R&D (cat #SP-450). Recombinant p53 and GST-XIAP were incubated. E1, UbcH5b, ubiquitin (Ub), and the appropriate E3 in conjugation buffer (20 mM Tris-Cl [pH 7.6], 100 mM KCl, 5 mM MgCl2, and 1 mM DTT) containing 2 mM ATP at 37C for 1 hour.

[4] = tested on: MG-63 osteosarcoma cell line; assay: Dose response of cell death with B3 relative to DMSO; format: cell-based; conditions: increasing doses of B3
Jurkat cell lines = assay: PrestoBlue viability assay; format: cell-based; conditions: 20 μM B3 vs 12.5 μM Etoposide, 24 h
HCT116 WT cells = assay: Western blot analysis of HCT116 WT cells; format: cell-based
Method: as §1

93 cancer cell lines = assay: Viability assay (SRB), cancer cell line screen; format: cell-based; conditions: 72 hrs, 10 mM to 0.1 μM
Method: as §2, §3

A-375 cells = assay: Viability assay (SRB), cancer cell line screen; format: cell-based; conditions: Homo sapiens; A-375, 72 hours incubation; read-out: GI50 score
Method: as §2, §3

Chain of XIAP (P98170 whole entry): as above

## Cn1ccnc1C(=O)c1ccc(NC(=O)C(=O)N[C@H](CO)Cc2ccccc2)cc1 [B3, (S)-N1-(1-hydroxy-3-phenylpropan-2-yl)-N2-(4-(1-methyl-1H-imidazole-2-carbonyl)phenyl)oxalamide]
XIAP
  direct binding to XIAP: binds with high affinity
[1]; 20 μM, 24 hrs
  Bcl-2 levels: clearly reduced
  XIAP levels: clearly reduced
  cleavage of Caspase 3: increased
  cleavage of Caspase 9: increased
  cleavage of PARP: increased
[1]; 20, 30, 40 μM B3, 24 hours
  MDM2 levels: reduction
  XIAP levels: reduction
  cPARP or caspase3: elevation
  p53 levels: elevation
[1]; B3 in combined treatment with ABT-199, 24 hrs
  ARTS levels: downregulated
[1]; six hours of B3 treatment
  Bcl-2 levels: decreased
[2]
  binding between VN-p53 and VC-XIAP: disrupted
PBMC
  sensitivity of normal cell control to B3: resistant
[3]
  p53 Ubiquitylation by XIAP: dose-dependent inhibition
[4]
  cell death: dose-dependent death
Jurkat cell lines
  cell death compared with Etoposide: as efficient as the strong pro-apoptotic chemotherapeutic agent Etoposide
HCT116 WT cells; 20 uM, 24 hrs
  XIAP levels: decrease
  cleavage of early apoptotic marker Caspase 9: increase
HCT116 WT cells; 10, 20, 30 μM B3, 24 hours
  MDM2 levels: reduction
  XIAP levels: reduction
  cPARP or caspase3: elevation
  p53 levels: elevation
93 cancer cell lines
  sensitivity of cancer cell lines to B3: sensitive
A-375 cells
  GI50: 14.8 µM
